Test results as given in ChEMBL document CHEMBL1125858, “Synthesis and biological activity of MK 287 (L-680,573): a potent, specific and orally active paf receptor antagonist” (Bioorg Med Chem Lett, 1991).
Activity calls are given as the source filed them. The calls are words filed in the database; no cut-off is given here.

How the values were obtained:
[1] = target: Beta-1 adrenergic receptor (Cavia porcellus) (UniProt B0FL73); experiment: Compound was tested for it's binding affinity towards guinea pig heart Beta-1 adrenergic receptor at a concentration of 10 uM; NA means no affinity.
Chain of Beta-1 adrenergic receptor (Cavia porcellus) (B0FL73 1-467): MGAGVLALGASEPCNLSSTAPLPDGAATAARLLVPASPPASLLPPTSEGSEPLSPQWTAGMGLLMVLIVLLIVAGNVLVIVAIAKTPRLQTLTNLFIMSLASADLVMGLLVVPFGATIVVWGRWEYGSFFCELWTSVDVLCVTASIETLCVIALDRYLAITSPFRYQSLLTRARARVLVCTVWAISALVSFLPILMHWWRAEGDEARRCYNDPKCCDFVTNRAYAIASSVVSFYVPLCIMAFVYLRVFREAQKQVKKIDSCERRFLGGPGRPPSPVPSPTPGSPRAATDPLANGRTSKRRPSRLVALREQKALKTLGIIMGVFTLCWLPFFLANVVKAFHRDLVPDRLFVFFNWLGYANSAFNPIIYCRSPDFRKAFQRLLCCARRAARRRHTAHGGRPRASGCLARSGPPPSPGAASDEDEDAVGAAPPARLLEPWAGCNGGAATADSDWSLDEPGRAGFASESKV

[2] = target: Beta-2 adrenergic receptor (Cavia porcellus) (UniProt Q8K4Z4); experiment: Compound was tested for it's binding affinity towards guinea pig lung Beta-2 adrenergic receptor at a concentration of 10 uM; NA means no affinity.
Chain of Beta-2 adrenergic receptor (Cavia porcellus) (Q8K4Z4 whole entry, looked up): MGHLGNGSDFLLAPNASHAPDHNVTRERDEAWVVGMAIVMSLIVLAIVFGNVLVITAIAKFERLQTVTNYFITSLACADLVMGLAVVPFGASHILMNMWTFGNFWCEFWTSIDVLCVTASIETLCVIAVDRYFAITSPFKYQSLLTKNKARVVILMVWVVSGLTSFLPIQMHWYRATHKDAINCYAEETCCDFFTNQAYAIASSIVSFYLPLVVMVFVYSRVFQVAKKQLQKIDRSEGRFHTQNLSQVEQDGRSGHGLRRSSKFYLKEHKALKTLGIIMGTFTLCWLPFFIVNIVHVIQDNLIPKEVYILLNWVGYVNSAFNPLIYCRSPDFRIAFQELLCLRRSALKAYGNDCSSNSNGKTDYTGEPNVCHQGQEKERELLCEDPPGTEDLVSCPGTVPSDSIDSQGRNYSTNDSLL

Cavia porcellus [3] = experiment: Compound was tested for it's ability to inhibit PAF-induced bronchoconstriction in female guinea pigs after intravenous dosing; format: functional
Cavia porcellus [4] = experiment: Compound was tested for it's ability to inhibit PAF-induced bronchoconstriction in male guinea pigs after intravenous dosing; format: functional
Rattus norvegicus [5] = experiment: In vivo efficacy for inhibition of PAF-induced (10 nM/kg) extravasation in male and female rats in a dose-dependent manner; format: functional
Rattus norvegicus [6] = experiment: In vivo efficacy for increased plasma N-acetyl-beta-D-glucosaminidase (NAGA) activity in male and female rats in a dose-dependent manner; format: functional
[7] = target: T1, Alpha-1A adrenergic receptor (Bos taurus) (UniProt P18130); experiment: Compound was tested for it's binding affinity towards calf brain alpha 1 receptor at a concentration of 10 uM; NA means no affinity.
T1 sequence (whole entry): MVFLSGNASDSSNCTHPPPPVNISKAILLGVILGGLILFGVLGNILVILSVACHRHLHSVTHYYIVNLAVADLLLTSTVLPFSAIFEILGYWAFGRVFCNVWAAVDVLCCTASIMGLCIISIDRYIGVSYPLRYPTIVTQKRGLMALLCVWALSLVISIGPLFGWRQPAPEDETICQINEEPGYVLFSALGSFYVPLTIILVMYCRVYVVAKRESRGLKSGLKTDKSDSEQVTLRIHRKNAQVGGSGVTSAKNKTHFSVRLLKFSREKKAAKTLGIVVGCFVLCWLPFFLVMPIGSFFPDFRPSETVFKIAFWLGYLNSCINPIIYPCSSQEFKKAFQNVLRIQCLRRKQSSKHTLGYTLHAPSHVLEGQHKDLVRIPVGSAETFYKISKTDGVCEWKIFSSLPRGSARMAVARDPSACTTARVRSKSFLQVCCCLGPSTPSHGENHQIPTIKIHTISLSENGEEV

[8] = target: T2, Alpha-2A adrenergic receptor (Bos taurus) (UniProt Q28838); experiment: Compound was tested for it's binding affinity towards calf brain alpha 2 receptor at a concentration of 10 uM; NA means no affinity.
T2 sequence (whole entry): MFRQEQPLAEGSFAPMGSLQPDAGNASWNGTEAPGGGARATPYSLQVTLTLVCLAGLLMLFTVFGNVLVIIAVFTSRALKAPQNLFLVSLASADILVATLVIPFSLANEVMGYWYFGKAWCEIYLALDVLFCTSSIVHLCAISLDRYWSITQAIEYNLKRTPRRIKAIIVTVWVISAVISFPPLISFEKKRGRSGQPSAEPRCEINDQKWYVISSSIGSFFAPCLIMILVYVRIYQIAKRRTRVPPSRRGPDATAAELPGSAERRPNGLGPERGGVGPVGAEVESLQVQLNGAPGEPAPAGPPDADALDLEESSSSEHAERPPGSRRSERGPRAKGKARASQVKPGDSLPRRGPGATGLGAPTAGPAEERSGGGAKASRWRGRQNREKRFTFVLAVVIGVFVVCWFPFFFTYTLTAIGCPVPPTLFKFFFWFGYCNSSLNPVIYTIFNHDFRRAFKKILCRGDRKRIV

Homo sapiens [9] = organism: Homo sapiens; experiment: Compound was tested for human platelet aggregation induced by ADP at concentrations from 1 to 10 uM; NE means no effect; format: functional, organism-based
Homo sapiens [10] = organism: Homo sapiens; experiment: Compound was tested for human platelet aggregation induced by thromboxane A2 agonist U-44,069 at concentrations from 1 to 10 uM; NE means no effect; format: functional, organism-based
Homo sapiens [11] = organism: Homo sapiens; experiment: Compound was tested for human platelet aggregation induced by vasopressin at concentrations from 1 to 10 uM; NE means no effect; format: functional, organism-based
Homo sapiens [12] = organism: Homo sapiens; experiment: Compound was tested for PAF-induced human platelet aggregation in plasma-rich platelets.; format: functional, organism-based
Homo sapiens [13] = organism: Homo sapiens; experiment: Compound was tested for PAF-induced human platelet aggregation in washed platelets.; format: functional, organism-based
Homo sapiens [14] = organism: Homo sapiens; experiment: The compound was tested for PAF-induced degranulation in preincubated isolated human neutrophils; format: functional
[15] = target: C5a anaphylatoxin chemotactic receptor 1 (Homo sapiens) (UniProt P21730); conditions: 1 to 10 uM
Chain of C5a anaphylatoxin chemotactic receptor 1 (Homo sapiens) (P21730 whole entry, looked up): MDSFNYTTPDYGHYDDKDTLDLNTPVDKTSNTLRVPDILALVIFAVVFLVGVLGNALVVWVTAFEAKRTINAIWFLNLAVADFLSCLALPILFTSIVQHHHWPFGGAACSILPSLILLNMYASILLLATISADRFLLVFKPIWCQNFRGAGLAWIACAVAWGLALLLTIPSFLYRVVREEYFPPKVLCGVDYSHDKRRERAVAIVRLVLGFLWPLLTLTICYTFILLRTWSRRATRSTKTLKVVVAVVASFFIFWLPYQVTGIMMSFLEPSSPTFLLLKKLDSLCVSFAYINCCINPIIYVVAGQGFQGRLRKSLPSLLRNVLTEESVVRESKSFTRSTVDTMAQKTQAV
Description: Compound was tested for it''s ability to inhibit binding of [125I]C5a radioligand to its receptor at a concentration of 1 to 10 uM; NS means no significant inhibition

[16] = target: Leukotriene B4 receptor 1 (Homo sapiens) (UniProt Q15722); conditions: 1 to 10 uM
Chain of Leukotriene B4 receptor 1 (Homo sapiens) (Q15722 whole entry, looked up): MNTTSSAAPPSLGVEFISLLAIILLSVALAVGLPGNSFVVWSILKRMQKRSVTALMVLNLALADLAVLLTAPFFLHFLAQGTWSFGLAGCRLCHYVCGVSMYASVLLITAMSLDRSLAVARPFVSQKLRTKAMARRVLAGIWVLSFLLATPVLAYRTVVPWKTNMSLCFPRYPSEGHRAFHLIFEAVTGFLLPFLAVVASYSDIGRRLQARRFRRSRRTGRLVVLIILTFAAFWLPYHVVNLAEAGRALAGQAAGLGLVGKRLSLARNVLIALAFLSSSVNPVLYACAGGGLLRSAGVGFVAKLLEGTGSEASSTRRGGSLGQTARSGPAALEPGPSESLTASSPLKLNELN

[17] = Half-life in rhesus monkeys by intravenous administration of dose; format: ADME, organism-based; conditions: cercopithecidae, in vivo

Compound	Affinity [1]	Affinity [2]	ED50 (Cavia porcellus [3])	ED50 (Cavia porcellus [4])	ED50 (Rattus norvegicus [5])	ED50 (Rattus norvegicus [6])	Affinity [7]	Affinity [8]	Activity (Homo sapiens [9])	Activity (Homo sapiens [10])	Activity (Homo sapiens [11])	IC50 (Homo sapiens [12])	IC50 (Homo sapiens [13])	IC50 (Homo sapiens [14])	inhibition [15]	inhibition [16]	half-life [17]
CCCOc1c(OC)cc([C@@H]2CC[C@@H](c3cc(OC)c(OC)c(OC)c3)O2)cc1S(=O)(=O)CCO	inactive	inactive	0.1 mg/kg	0.19 mg/kg	2.3 mg/kg	0.1 mg/kg	inactive	inactive	inactive	inactive	inactive	56 nM	1.5 nM	4 nM	inactive	inactive	
COc1cc([C@H]2CC[C@H](c3cc(OC)c(OC)c(OC)c3)O2)cc(OC)c1OC																	14 min
